{"source": "patent US20120277209A1", "about": "“PYRAZINE COMPOUNDS AS PHOSPHODIESTERASE 10 INHIBITORS” (Amgen Inc., priority 2009, published 2012)"}
{"target": "PDE10 (UniProt Q9Y233)", "assay": "PDE10 enzyme inhibition, IMAP TR-FRET assay (MPDE10A7 Enzyme Activity and Inhibition)", "type": "biochemical", "details": "IC50 class against PDE10; read-out: IC50", "summary_of_the_method": "(§1)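 IMAP TR-FRET read-out of PDE10 hydrolysis of fluorescein-cAMP or -cGMP (60 min, room temperature), after a 30 min compound-enzyme preincubation. Enzyme source was PDE10A or tissue homogenate. Averaged IC50s are reported as five range classes.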", "units": {"IC50": "nM"}}
{"smiles": "N#Cc1cccc(-c2nccnc2Oc2ccc(C(=O)c3nc4ccccc4[nH]3)cc2)c1", "note": "[Example 125, 3-(3-(4-(1H-benzo[d]imidazole-2-carbonyl)phenoxy)pyrazin-2-yl)benzonitrile]", "IC50": "< 25"}
{"smiles": "COCC(=O)N1CCC(c2nccnc2Oc2ccc(C(=O)c3nc4ccccc4[nH]3)cc2)CC1", "note": "[Example 232, 1-(4-(3-(4-(1H-benzo[d]imidazole-2-carbonyl)phenoxy)pyrazin-2-yl)piperidin-1-yl)-2-methoxyethanone]", "IC50": "< 25"}
{"target": "PDE10 (UniProt Q9Y233)", "assay": "PDE10 enzyme inhibition, IMAP TR-FRET assay (MPDE10A7 Enzyme Activity and Inhibition)", "type": "biochemical", "details": "PDE10 enzyme inhibition; average IC50 data for each compound; read-out: Average IC50", "summary_of_the_method": "as §1", "units": {"IC50": "nM"}}
{"smiles": "CC(=O)N1CCC(c2nccnc2Oc2ccc(Nc3nc4ccccc4s3)nc2)CC1", "note": "[drawing 992]", "IC50": 0.59}
{"smiles": "CN1CCC(c2nccnc2Oc2ccc(Nc3nc4ccccc4s3)cc2)CC1", "note": "[drawing 966]", "IC50": 5.92}
{"smiles": "N#C[C@H]1CCN(c2nccnc2Oc2ccc(C(=O)c3nc4ccccc4[nH]3)cc2)C1", "note": "[drawing 829]", "IC50": 1.32}
{"smiles": "O[C@H]1CCC[C@H](c2nccnc2Oc2ccc(Nc3nc4ccccc4s3)cc2)C1", "note": "[drawing 894]", "IC50": 1.57}
{"smiles": "O=C(c1ccc(Oc2nccnc2[C@@H]2CCC[C@@H](O)C2)cc1)c1nc2ccccc2[nH]1", "note": "(stereo in doubt) [drawing 898]", "IC50": 1.25}
{"smiles": "O=C(c1ccc(Oc2nccnc2[C@@H]2CCC[C@H](O)C2)cc1)c1nc2ccccc2[nH]1", "note": "[drawing 907]", "IC50": 1.16}
{"smiles": "O=C1CCC(c2nccnc2Oc2ccc(C(=O)c3nc4ccccc4[nH]3)cc2)CC1", "note": "[drawing 911]", "IC50": 0.199}
